According to ChEMBL document CHEMBL4219051, “Cyclin-Dependent Kinase 8: A New Hope in Targeted Cancer Therapy?” (J Med Chem, 2018):
Values belong to the molecule of their own block, whether it stands above or below them.

Tests used:
[1] = biological target: Mitogen-activated protein kinase kinase kinase kinase 2 (Homo sapiens) (UniProt Q12851); test: Inhibition of MAP4K2 (unknown origin) at 2 uM relative to control
[2] = biological target: Mitogen-activated protein kinase kinase kinase 19 (Homo sapiens) (UniProt Q56UN5); test: Inhibition of YSK4 (unknown origin) at 2 uM relative to control
[3] = biological target: Cyclin-dependent kinase 8/Cyclin-C (Mus musculus, UniProt Q8R3L8); test: Inhibition of CDK8/Cyclin-C in R848-stimulated mouse BMDC assessed as upregulation of IL-10 level; assay type: cell-based
[4] = biological target: T1, Cyclin-dependent kinase 19 (Homo sapiens, UniProt Q9BWU1); test: Inhibition of CDK19 (unknown origin)
[5] = biological target: Cyclin-dependent kinase 8 (Homo sapiens, UniProt P49336); test: Inhibition of CDK8 (unknown origin)
SET-2 [6] = test: Growth inhibition of human SET2 cells after 10 days by CellTiter-Glo assay; assay type: functional; settings: SET-2, 240 h
[7] = biological target: T1, Cyclin-dependent kinase 19; test: Inhibition of CDK19 (unknown origin) in presence of [gamma33P]ATP by radiometric method
[8] = Growth inhibition of human UKE1 cells after 10 days by CellTiter-Glo assay; assay type: functional; settings: UKE1, 240 h
[9] = Growth inhibition of human SKNO1 cells after 10 days by CellTiter-Glo assay; assay type: functional; settings: SKNO-1, 240 h
[10] = biological target: Rho-associated protein kinase 1 (Homo sapiens, UniProt Q13464); test: Inhibition of ROCK1 (unknown origin)
RS4-11 = test: Growth inhibition of human RS4:11 cells after 10 days by CellTiter-Glo assay; assay type: functional; settings: RS4-11, 240 h
SET-2 [11] = test: Antitumor activity against human SET2 cells xenografted in SCID Beige mouse assessed as tumor growth inhibition at 0.16 mg/kg, ip qd measured on day 33 relative to control; assay type: functional; settings: SET-2, ip, 792 h, read-out: TGI
MEG-01 = test: Growth inhibition of human MEG01 cells after 10 days by CellTiter-Glo assay; assay type: functional; settings: MEG-01, 240 h
[12] = biological target: Rho-associated protein kinase 2 (Homo sapiens, UniProt O75116); test: Inhibition of ROCK2 (unknown origin)
MV4-11 [13] = test: Growth inhibition of human MV4-11 cells after 10 days by CellTiter-Glo assay; assay type: functional; settings: MV4-11, 240 h
TF-1 = test: Growth inhibition of human TF1 cells after 10 days by CellTiter-Glo assay; assay type: functional; settings: TF-1, 240 h
HCT-116 [14] = test: Growth inhibition of human HCT116 cells after 7 days by CellTiter-Glo assay; assay type: functional; settings: HCT-116, 168 h
MOLM-14 = test: Growth inhibition of human MOLM14 cells after 10 days by CellTiter-Glo assay; assay type: functional; settings: MOLM-14, 240 h
MV4-11 [15] = test: Growth inhibition of human MV4-11 cells by alamar blue assay; assay type: functional
[16] = biological target: Cyclin-C/Cyclin-dependent kinase 19 (Homo sapiens, UniProt Q9BWU1); test: Inhibition of CDK19/Cyclin-C (unknown origin) in presence of [gamma33P]ATP by radiometric method; assay type: protein-complex assay
OCI-AML2 = test: Growth inhibition of human OCI-AML2 cells by alamar blue assay; assay type: functional
CDK8/Cyclin C [17] = biological target: T2, CDK8/Cyclin C (Homo sapiens, UniProt P49336); test: Inhibition of CDK8/Cyclin-C (unknown origin) in presence of [gamma33P]ATP by radiometric method; assay type: protein-complex assay
HL-60 = test: Growth inhibition of human HL60 cells by alamar blue assay; assay type: functional
[18] = Growth inhibition of human MOLM16 cells by alamar blue assay; assay type: functional
[19] = Growth inhibition of human SKNO1 cells by alamar blue assay; assay type: functional; settings: SKNO-1
OCI-AML-3 = test: Growth inhibition of human OCI-AML3 cells by alamar blue assay; assay type: functional
KG-1 = test: Growth inhibition of human KG1 cells by alamar blue assay; assay type: functional
[20] = Growth inhibition of human MOLM6 cells by alamar blue assay; assay type: functional
[21] = biological target: Receptor-type tyrosine-protein kinase FLT3 (Homo sapiens) (UniProt P36888); test: Inhibition of FLT3 (unknown origin) at 1 uM relative to control
HCT-116 [22] = test: cells; settings: Homo sapiens
CDK8/Cyclin C [23] = biological target: T2, CDK8/Cyclin C; test: Inhibition of CDK8/CCNC (unknown origin) using RBER-IRStide as substrate in presence of [gamma33P]ATP by radiometric method; assay type: protein-complex assay

T1 sequence (Q9BWU1 whole entry): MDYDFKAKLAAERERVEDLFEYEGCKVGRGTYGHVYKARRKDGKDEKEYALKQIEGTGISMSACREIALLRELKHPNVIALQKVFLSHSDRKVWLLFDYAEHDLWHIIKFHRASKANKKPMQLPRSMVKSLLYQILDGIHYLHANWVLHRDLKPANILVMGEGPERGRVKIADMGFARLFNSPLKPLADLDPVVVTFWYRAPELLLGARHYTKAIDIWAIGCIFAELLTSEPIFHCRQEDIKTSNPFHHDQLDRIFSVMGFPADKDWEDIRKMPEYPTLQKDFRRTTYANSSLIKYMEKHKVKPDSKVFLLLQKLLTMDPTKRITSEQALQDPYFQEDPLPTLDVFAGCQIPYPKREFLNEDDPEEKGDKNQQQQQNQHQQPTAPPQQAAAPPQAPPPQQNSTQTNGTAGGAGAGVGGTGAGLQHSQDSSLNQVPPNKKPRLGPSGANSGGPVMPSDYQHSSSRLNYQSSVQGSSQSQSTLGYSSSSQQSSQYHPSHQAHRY
T2 sequence (P49336 whole entry): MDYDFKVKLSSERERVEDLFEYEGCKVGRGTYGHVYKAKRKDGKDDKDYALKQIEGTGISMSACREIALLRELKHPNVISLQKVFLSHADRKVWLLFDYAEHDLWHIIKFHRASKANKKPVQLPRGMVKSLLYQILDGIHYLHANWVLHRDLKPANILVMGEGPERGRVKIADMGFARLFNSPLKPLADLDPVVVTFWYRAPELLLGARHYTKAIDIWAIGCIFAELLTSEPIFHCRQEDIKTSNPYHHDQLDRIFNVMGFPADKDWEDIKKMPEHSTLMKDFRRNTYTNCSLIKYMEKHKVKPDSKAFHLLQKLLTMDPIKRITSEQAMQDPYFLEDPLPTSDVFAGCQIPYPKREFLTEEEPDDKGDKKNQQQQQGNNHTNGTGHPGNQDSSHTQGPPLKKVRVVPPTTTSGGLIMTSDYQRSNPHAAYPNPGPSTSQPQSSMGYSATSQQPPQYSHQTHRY
T2 sequence (P24863 whole entry, further chain): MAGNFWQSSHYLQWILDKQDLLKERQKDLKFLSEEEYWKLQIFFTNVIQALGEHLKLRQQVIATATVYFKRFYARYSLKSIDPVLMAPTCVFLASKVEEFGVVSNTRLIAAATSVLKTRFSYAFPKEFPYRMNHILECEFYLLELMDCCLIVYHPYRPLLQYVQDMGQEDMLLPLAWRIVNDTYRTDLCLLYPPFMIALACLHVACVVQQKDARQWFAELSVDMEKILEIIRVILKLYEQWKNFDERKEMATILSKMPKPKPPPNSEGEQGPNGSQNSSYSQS
Sequence of Mitogen-activated protein kinase kinase kinase 19 (Homo sapiens) (Q56UN5 whole entry): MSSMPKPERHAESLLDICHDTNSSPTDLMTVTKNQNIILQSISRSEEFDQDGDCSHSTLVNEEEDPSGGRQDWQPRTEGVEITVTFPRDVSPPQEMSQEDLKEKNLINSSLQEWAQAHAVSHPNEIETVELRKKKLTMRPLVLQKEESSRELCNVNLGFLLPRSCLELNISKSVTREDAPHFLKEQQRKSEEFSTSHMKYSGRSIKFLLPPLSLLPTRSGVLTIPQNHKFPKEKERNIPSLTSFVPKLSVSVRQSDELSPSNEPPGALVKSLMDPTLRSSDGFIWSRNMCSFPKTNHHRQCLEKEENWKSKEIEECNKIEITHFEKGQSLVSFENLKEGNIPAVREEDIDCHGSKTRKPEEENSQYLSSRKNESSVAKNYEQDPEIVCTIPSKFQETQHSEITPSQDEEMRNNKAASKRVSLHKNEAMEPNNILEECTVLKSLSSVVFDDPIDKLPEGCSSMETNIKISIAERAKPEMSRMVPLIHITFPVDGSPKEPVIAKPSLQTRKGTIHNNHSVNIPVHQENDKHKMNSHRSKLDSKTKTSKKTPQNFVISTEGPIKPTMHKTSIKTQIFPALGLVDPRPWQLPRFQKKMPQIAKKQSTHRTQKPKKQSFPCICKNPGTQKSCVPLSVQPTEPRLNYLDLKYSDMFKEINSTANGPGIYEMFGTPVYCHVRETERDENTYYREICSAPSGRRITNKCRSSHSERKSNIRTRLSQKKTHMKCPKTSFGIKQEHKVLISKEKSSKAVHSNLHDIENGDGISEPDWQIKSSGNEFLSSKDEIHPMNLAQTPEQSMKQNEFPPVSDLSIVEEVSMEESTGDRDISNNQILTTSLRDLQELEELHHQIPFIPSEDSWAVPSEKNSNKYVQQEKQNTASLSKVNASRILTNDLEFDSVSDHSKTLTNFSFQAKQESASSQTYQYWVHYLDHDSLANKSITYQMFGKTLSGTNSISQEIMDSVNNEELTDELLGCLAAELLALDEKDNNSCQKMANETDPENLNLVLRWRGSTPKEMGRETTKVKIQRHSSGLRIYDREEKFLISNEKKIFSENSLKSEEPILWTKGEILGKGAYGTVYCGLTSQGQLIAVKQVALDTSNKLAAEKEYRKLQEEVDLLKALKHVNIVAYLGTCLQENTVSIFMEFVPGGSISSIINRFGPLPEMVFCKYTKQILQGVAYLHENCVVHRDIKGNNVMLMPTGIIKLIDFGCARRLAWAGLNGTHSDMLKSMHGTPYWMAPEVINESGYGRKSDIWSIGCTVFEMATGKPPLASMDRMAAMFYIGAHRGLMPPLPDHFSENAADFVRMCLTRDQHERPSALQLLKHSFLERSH
Sequence of Receptor-type tyrosine-protein kinase FLT3 (Homo sapiens) (P36888 whole entry): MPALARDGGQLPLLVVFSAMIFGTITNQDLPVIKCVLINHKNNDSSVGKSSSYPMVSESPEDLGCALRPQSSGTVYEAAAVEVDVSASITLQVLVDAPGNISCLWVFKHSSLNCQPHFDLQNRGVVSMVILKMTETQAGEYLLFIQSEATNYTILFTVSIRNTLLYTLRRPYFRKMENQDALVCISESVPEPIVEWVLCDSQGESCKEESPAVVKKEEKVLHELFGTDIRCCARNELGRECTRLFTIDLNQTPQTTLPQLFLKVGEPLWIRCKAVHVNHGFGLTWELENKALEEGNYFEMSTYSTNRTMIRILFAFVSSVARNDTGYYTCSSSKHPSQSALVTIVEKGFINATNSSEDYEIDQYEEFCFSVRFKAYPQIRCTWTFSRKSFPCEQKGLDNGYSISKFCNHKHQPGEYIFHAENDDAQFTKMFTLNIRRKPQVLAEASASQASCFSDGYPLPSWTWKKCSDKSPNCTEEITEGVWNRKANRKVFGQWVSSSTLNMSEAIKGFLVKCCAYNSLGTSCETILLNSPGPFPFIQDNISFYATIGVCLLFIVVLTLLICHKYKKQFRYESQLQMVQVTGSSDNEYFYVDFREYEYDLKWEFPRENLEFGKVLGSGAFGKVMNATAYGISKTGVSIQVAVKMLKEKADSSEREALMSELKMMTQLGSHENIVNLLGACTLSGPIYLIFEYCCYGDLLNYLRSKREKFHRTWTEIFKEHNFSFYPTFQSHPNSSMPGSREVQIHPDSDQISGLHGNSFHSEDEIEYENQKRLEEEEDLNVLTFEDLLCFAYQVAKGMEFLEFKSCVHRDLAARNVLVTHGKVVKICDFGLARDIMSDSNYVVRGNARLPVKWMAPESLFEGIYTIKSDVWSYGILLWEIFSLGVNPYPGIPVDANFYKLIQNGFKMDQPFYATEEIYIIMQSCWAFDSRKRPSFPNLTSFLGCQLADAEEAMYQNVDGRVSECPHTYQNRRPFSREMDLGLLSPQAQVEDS
Sequence of Mitogen-activated protein kinase kinase kinase kinase 2 (Homo sapiens) (Q12851 whole entry): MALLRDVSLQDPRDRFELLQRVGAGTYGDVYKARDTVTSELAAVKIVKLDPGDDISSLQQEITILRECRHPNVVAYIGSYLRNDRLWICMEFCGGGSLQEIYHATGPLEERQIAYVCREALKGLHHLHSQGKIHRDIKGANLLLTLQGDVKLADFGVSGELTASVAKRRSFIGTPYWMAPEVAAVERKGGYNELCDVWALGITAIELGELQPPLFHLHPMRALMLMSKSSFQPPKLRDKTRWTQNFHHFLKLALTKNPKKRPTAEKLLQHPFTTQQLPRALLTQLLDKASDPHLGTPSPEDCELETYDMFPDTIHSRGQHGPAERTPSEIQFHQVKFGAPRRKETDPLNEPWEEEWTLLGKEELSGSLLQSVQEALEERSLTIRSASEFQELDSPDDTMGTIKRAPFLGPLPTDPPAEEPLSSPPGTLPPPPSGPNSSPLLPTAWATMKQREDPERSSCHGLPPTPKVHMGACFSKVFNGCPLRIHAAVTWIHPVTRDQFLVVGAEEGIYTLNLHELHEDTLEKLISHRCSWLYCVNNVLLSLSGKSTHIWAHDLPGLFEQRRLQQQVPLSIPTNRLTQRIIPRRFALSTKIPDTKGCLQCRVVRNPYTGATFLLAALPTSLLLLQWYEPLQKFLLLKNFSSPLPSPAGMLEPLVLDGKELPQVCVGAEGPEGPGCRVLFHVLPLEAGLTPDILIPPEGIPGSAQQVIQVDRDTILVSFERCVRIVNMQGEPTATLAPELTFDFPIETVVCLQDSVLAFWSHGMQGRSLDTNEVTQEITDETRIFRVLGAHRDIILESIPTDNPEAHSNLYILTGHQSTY
Sequence of Cyclin-dependent kinase 8/Cyclin-C (Q8R3L8 whole entry): as the sequence (P49336 whole entry) above, with Q82L, D366E, N372T, S394G, T396A counted along it
Sequence of Cyclin-dependent kinase 8/Cyclin-C (Q62447 whole entry, further chain): as the sequence (P24863 whole entry, further chain) above, with A112T, M171V counted along it
Sequence of Cyclin-C/Cyclin-dependent kinase 19 (Q9BWU1 whole entry): as the sequence (Q9BWU1 whole entry) above
Sequence of Cyclin-C/Cyclin-dependent kinase 19 (P24863 whole entry, further chain): as the sequence (P24863 whole entry, further chain) above
Sequence of Cyclin-dependent kinase 8 (P49336 whole entry): as the sequence (P49336 whole entry) above

EC50 [3]: 1400 nM | IC50 [4]: 30000 nM | IC50 [5]: 500 nM
SMILES: CC1CCc2nc(N)c(C#N)c(-c3cccnc3)c2C1 (stereo unspecified)

inhibition [21]: 74% | IC50 (HCT-116 [22]): > 10000 nM
SMILES: CCN1CCN(Cc2ccc(NC(=O)N[C@@H]3CCN(c4ccnc(NC)n4)C3)cc2C(F)(F)F)CC1

Continued, molecule first:

SMILES: CN1CCN(C(=O)c2ccc3cc(CCNc4ncnc5ccc(C#N)cc45)ccc3c2)CC1
inhibition [1]: 69% | inhibition [2]: 59%

SMILES: CN(C)[C@H]1C[C@@]23CC[C@@]4(O2)C(=CC[C@]2(C)[C@@H](c5ccc6ccncc6c5)CC[C@H]24)C=C3[C@@H](O)[C@@H]1O
GI50 (SET-2 [6]): 4 nM | IC50 [7]: 10 nM | GI50 [8]: 7 nM | GI50 [9]: 1 nM | IC50 [10]: 250 nM | GI50 (RS4-11): 3 nM | inhibition in vivo at 0.16 mg/kg (SET-2 [11]): 70% | GI50 (MEG-01): 9 nM | IC50 [12]: 220 nM | GI50 (MV4-11 [13]): 6 nM | GI50 (TF-1): 360 nM | GI50 (HCT-116 [14]): > 1000 nM | GI50 (MOLM-14): 5 nM

SMILES: Cc1c(Br)c(Br)c2c3c1nc(N1CCNCC1)n3CCC2 [SEL-120 FREE BASE]
GI50 (MV4-11 [15]): < 1000 nM | IC50 [16]: 10 nM | GI50 (OCI-AML2): < 1000 nM | IC50 (CDK8/Cyclin C [17]): 4 nM | GI50 (HL-60): < 1000 nM | GI50 [18]: < 1000 nM | GI50 [19]: < 1000 nM | GI50 (OCI-AML-3): < 1000 nM | GI50 (KG-1): < 1000 nM | GI50 [20]: < 1000 nM

SMILES: N#Cc1ccc2ncnc(NCCc3ccccc3)c2c1
IC50 (CDK8/Cyclin C [23]): 280 nM
